Assay results taken from patent publication US4330542A, “N(Sulfonyl)anilines for treating angina pectoris” (Sanofi, priority 1979, dated 1982).

How the values were obtained:
[1] = Heart-rate in anaesthetized atropinized dogs after intravenous injection; type: in vivo; conditions: anaesthetized atropinized dog, 10 mg/kg intravenous
Experimental: (§1) The pharmacological investigation was carried out on anaesthetized dogs (30 mg/kg I.V. of sodium pentobarbital) having previously received an intravenous dose of 1 mg/kg of atropine sulphate.
(§2) The substance to be tested was given by an intravenous injection lasting two minutes after which the behaviour of both heart-rate and blood-pressure was observed over a certain period of time. An investigation was then carried out to detect any antiadrenergic properties. The compound listed hereunder were tested, in most cases in the form of pharmaceutically acceptable acid addition salts: […]

β-system = test: Antiadrenergic effect on the β-system: reduction of isoprenaline-increased heart-rate in the dog; type: in vivo; conditions: anaesthetized atropinized dog, same method as epinephrine test (10 mg/kg intravenous)
Experimental: (§3) A dose of epinephrine, sufficient to produce a stable increase in blood-pressure was administered to a dog anaesthetized with sodium pentobarbital which had previously received an intravenous injection of 1 mg/kg of atropine sulphate. The operation was repeated several times and the blood-pressure obtained was noted. When the latter had returned to its normal level, the animal was given an intravenous dose of 10 mg/kg of the compound to be tested followed by the same dose as above of epinephrine.
The antiadrenergic effects of the compounds of the invention on the β-system were also studied, by determining the degree to which they reduced isoprenaline-increased heart-rate. The same method as above was used.

α-system [2] = test: Inhibitory effect on the α-system: reduction of epinephrine-increased blood-pressure in the atropinized dog; type: in vivo; conditions: anaesthetized atropinized dog, 10 mg/kg intravenous
Experimental: as §3

[3] = Blood-pressure in anaesthetized atropinized dogs after intravenous injection; type: in vivo; conditions: anaesthetized atropinized dog, 10 mg/kg intravenous
Experimental: as §1, §2

α-system [4] = test: Inhibitory effect on the α-system: reduction of epinephrine-increased blood-pressure in the atropinized dog; type: in vivo; conditions: anaesthetized atropinized dog, dose as low as 2 mg/kg
[5] = Acute toxicity in the rat, intravenous route; conditions: in vivo
Experimental: Acute toxicity tests were also carried out on the rat, by intravenous route.

Molecule	reduction in heart-rate [1]	reduction in isoprenaline-increased heart-rate (β-system)	reduction of epinephrine-induced arterial hypertension (α-system [2])	reduction in blood-pressure [3]	reduction of epinephrine-induced arterial hypertension at low dose (α-system [4])	LD50 [5]
C=CCOc1ccccc1N(CC(O)CNC(C)(C)C)S(=O)(=O)c1ccc(OC)cc1 (centres unmarked) [Compound 14, 2-Allyloxy-N-(3-tert-butylamino-2 hydroxy-propyl)-N-(4-methoxy-benzenesulphonyl)-aniline]	marked and long-lasting reduction in heart-rate	marked reduction in the isoprenaline-increased heart-rate	reduced, at least partially, the epinephrine-induced arterial hypertension			
C=CCOc1ccccc1N(CC(O)CN1CCN(c2ccc(F)cc2)CC1)S(C)(=O)=O (centres unmarked) [Compound 23, 2-Allyloxy-N-[3-(4-(4-fluoro-phenyl)-1-piperazinyl)-2-hydroxy-propyl]-N-methylsulphonyl-aniline]			reduced, at least partially, the epinephrine-induced arterial hypertension	marked and constant reduction in blood-pressure		
C=CCOc1ccccc1N(CC(O)CN1CCN(c2ccccc2OC)CC1)S(C)(=O)=O (centres unmarked) [Compound 30, 2-Allyloxy-N-[2-hydroxy-3-(4-(2-methoxy-phenyl)-1-piperazinyl)-propyl]-N-methylsulphonyl-aniline]		marked reduction in the isoprenaline-increased heart-rate	reduced, at least partially, the epinephrine-induced arterial hypertension	marked and constant reduction in blood-pressure	Long-lasting and total reduction	
C=CCOc1ccccc1N(CC(O)CN1CCN(Cc2ccccc2)CC1)S(=O)(=O)c1ccc(C)cc1 (centres unmarked) [Compound 40, 2-Allyloxy-N-[3-(4-benzyl-1-piperazinyl)-2-hydroxy-propyl]-N-(4-methylbenzene-sulphonyl)-aniline]	marked and long-lasting reduction in heart-rate	marked reduction in the isoprenaline-increased heart-rate	reduced, at least partially, the epinephrine-induced arterial hypertension	marked and constant reduction in blood-pressure		12 mg/kg
C=CCOc1ccccc1N(CC(O)CN1CCN(c2ccccn2)CC1)S(=O)(=O)c1ccc(OC)cc1 (centres unmarked) [Compound 53, 2-Allyloxy-N-[2-hydroxy-3-(4-(2-pyridyl)-1-piperazinyl)-propyl]-N-(4-methoxy-benzenesulphonyl)-aniline]			reduced, at least partially, the epinephrine-induced arterial hypertension	marked and constant reduction in blood-pressure		
C=CCOc1ccccc1N(CC(O)CN1CCN(c2ccccc2F)CC1)S(=O)(=O)c1ccc(OC)cc1 (centres unmarked) [Compound 57, 2-Allyloxy-N-[2-hydroxy-3-(4-(2-fluoro-phenyl)-1-piperazinyl)-propyl]-N-(4-methoxy-benzenesulphonyl)-aniline]	marked and long-lasting reduction in heart-rate		reduced, at least partially, the epinephrine-induced arterial hypertension			
CS(=O)(=O)N(CC(O)CN1CCN(c2ccccc2Cl)CC1)c1ccc(Cl)c(Cl)c1 (centres unmarked) [Compound 75, 3,4-Dichloro-N-[3-(4-(2-chloro-phenyl)-1-piperazinyl)-2-hydroxy-propyl]-N-methylsulphonyl-aniline]			reduced, at least partially, the epinephrine-induced arterial hypertension	marked and constant reduction in blood-pressure		
COc1ccccc1N1CCN(CC(O)CN(c2ccc(Cl)c(Cl)c2)S(C)(=O)=O)CC1 (centres unmarked) [Compound 77, 3,4-Dichloro-N-[2-hydroxy-3-(4-(2-methoxy-phenyl)-1-piperazinyl)-propyl]-N-methylsulphonyl-aniline]	marked and long-lasting reduction in heart-rate		reduced, at least partially, the epinephrine-induced arterial hypertension	marked and constant reduction in blood-pressure		
COc1ccc(S(=O)(=O)N(CC(O)CN2CCN(c3ccc(Cl)cc3)CC2)c2ccc(Cl)c(Cl)c2)cc1 (centres unmarked) [Compound 84, 3,4-Dichloro-N-[3-(4-(4-chloro-phenyl)-1-piperazinyl)-2-hydroxy-propyl]-N-(4-methoxy-benzenesulphonyl)-aniline]	marked and long-lasting reduction in heart-rate		reduced, at least partially, the epinephrine-induced arterial hypertension			
CC(=O)Nc1ccc(N(CC(O)CN2CCN(c3ccccc3)CC2)S(C)(=O)=O)cc1 (centres unmarked) [Compound 88, 4-Acetylamino-N-[2-hydroxy-3-(4-phenyl-1-piperazinyl)-propyl]-N-methylsulphonyl-aniline]		marked reduction in the isoprenaline-increased heart-rate	reduced, at least partially, the epinephrine-induced arterial hypertension	marked and constant reduction in blood-pressure		
COc1ccccc1N1CCN(CC(O)CN(c2ccc(NC(C)=O)cc2)S(C)(=O)=O)CC1 (centres unmarked) [Compound 90, 4-Acetylamino-N-[2-hydroxy-3-(4-(2-methoxy-phenyl)1-piperazinyl)-2-hydroxy-propyl]-N-methyl-sulphonyl-aniline]			reduced, at least partially, the epinephrine-induced arterial hypertension	marked and constant reduction in blood-pressure		
CC(=O)Nc1ccc(N(CC(O)CN2CCN(c3ccccc3)CC2)S(=O)(=O)c2ccc(C)cc2)cc1 (centres unmarked) [Compound 91, 4-Acetylamino-N-[2-hydroxy-3-(4-phenyl-1-piperazinyl)-propyl]-N-(4-methyl-benzenesulphonyl)-aniline]	marked and long-lasting reduction in heart-rate		reduced, at least partially, the epinephrine-induced arterial hypertension	marked and constant reduction in blood-pressure		
COc1ccccc1N1CCN(CC(O)CN(c2ccc(NC(C)=O)cc2)S(=O)(=O)c2ccc(C)cc2)CC1 (centres unmarked) [Compound 94, 4-Acetylamino-N-[2-hydroxy-3-(4-(2-methoxy-phenyl)-1-piperazinyl)-propyl]-N-(4-methyl-benzenesulphonyl)-aniline]	marked and long-lasting reduction in heart-rate		reduced, at least partially, the epinephrine-induced arterial hypertension	marked and constant reduction in blood-pressure		
CC(=O)Nc1ccc(N(CC(O)CN2CCN(c3ccccc3Cl)CC2)S(=O)(=O)c2ccc(C)cc2)cc1 (centres unmarked) [Compound 95, 4-Acetylamino-N-[3-(4-(2-chloro-phenyl)-1-piperazinyl)-2-hydroxy-propyl]-N-(4-methyl-benzenesulphonyl)-aniline]				marked and constant reduction in blood-pressure		
COc1ccccc1N1CCN(CC(O)CN(c2ccc(CC(N)=O)cc2)S(=O)(=O)c2ccc(C)cc2)CC1 (centres unmarked) [Compound 105, N-[2-hydroxy-3-(4-(2-methoxy-phenyl)-1-piperazino)-propyl]-N-(4-methyl-benzenesulphonyl)-4-amino-phenylacetamide]			reduced, at least partially, the epinephrine-induced arterial hypertension	marked and constant reduction in blood-pressure		
N-[2-hydroxy-3-(4-(2-methoxy-phenyl)-1-piperazinyl)-propyl]-N-methylsulphonyl-4-amino-phenylacetamide [Compound 102]	marked and long-lasting reduction in heart-rate		reduced, at least partially, the epinephrine-induced arterial hypertension	marked and constant reduction in blood-pressure	Long-lasting and total reduction	
N-[3-(4-(4-chlorophenyl)-1-piperazinyl)-2-hydroxy-propyl]-N-methylsulphonyl-4-amino-phenylacetamide [Compound 99]			reduced, at least partially, the epinephrine-induced arterial hypertension			
